# How the values were obtained:
# [1] = tested on: venous thrombosis induced by stasis (lower vena cava ligature); experiment: Stasis-induced venous thrombosis, clot weight; assay type: in vivo, rat
# Procedure: B/Stasis-induced Thrombosis A laparotomy was performed to open the lower vena cava, on which a ligature was placed at T0, followed by subcutaneous injection of glycine betaine at T0+2 hours, followed by withdrawal of the clot and blood samples at T0+6 hours. Male Wistar rats were used for these tests. They weighed between 200 and 250 grams. After an 8-day stabilisation period, the rats were subjected to fasting for 12 hours. They were then anaesthetised, glycine betaine was administered subcutaneously, and the mesentery (laser) or vena cava (stasis) was opened at the end of the experiments.
# [2] = tested on: coagulation factors; experiment: Plasminogenesis, coagulation and anti Xa in the stasis-induced thrombosis model; assay type: in vivo, rat
# Procedure: A laparotomy was performed to open the lower vena cava, on which a ligature was placed at T0, followed by subcutaneous injection of glycine betaine at T0+2 hours, followed by withdrawal of the clot and blood samples at T0+6 hours.
# [3] = tested on: intrinsic coagulation pathway; experiment: Activated coagulation time (kaolin); assay type: in vivo, rat
# Source text: Activated Coagulation Time (Kaolin)
# This test explores the intrinsic coagulation pathway. […] These tubes contain the kaolin activator. (Method HaemoTec., automated coagulation timer manufactured by MEDTRONIC HAEMOTEC Inc., Englewood, Colo., USA).
# [4] = tested on: platelet aggregation induced with ADP; experiment: Aggregation induced with ADP; assay type: in vivo, rat; conditions: ADP 5 μM
# Procedure: (§1) The aggregation is made in accordance to the methods of Cardinal & Flower. Pharmacol. Method. 1980, and to American Journal of Clinical Pathology, 1989; 92: 676-679, Sureney. J D. Whole Blood aggregometry. After a keeping period of 8 days, the rats are subjected to a fasting for 12 hours. Betaine is subcutaneously injected one hour before blood sampling. The rats are then anaesthetised with sodium Thiopental administered at a dose of 200 mg/Kg and the blood samples are taken by intracardiac puncture on a trisodium citrate solution (1 volume of solution at 3.8% citrate for 9 volumes of blood).
# • This example evaluated aggregation induced with ADP. • Final ADP concentration 5 μM
# [5] = tested on: platelet aggregation induced with collagen; experiment: Aggregation induced with collagen; assay type: in vivo, rat; conditions: collagen 10 μgr/ml
# Procedure: as §1
# • This example evaluates aggregation induced with collagen. • Collagen concentration 10 μgr/ml
# [6] = tested on: platelet aggregations induced by ADP, collagen, epinephrine, adrenaline, thrombin, ristocetine, arachidonic acid; experiment: Human in vivo test, induced platelet aggregations in heavy smokers; conditions: two heavy smokers, oral capsules 5 g/day during 7 days
# Procedure: This example describes a human in vivo test. Two volunteers (with a weight of about 70-75 kg), considered as heavy smokers (smoking more than 10 cigarettes/day) have orally taken capsules (gastro soluble) containing 5 g anhydrous glycine betaine/day during 7 days. Before administration of the betaine, the aggregations induced by ADP, by collagen, by epinephrine, by adrenaline, by thrombin, by ristocetine and by arachidonic acid were determined. After one week of treatment, the same platelet aggregations were measured. It appeared from said tests that all the induced platelet aggregations were reduced for all said endogenous agonists of at least 30%. Better results are expected when using oral dosage form with controlled release, such as gastro insoluble, but entero soluble form.
# [7] = tested on: induced haemorrhage in rats; experiment: Anti-haemorrahgic activity with aspirin or heparin; assay type: in vivo, rat; conditions: glycine betaine 2-50 mg given with 100 mg aspirin or 2 mg heparin, versus aspirin or heparin alone
# Procedure: This example tested anti-haemorrahgic activity using rats. Some rats received an active agent with haemorrahgic side effect, while other rats received said active agent together with a dose of betaine.
# The following products were administered to rats for determining whether glycine betaine has an anti-haemorrahgic effect: • 100 mg aspirin per kg life body • 100 mg aspirin+50 mg glycine betaine per kg life body • 2 mg heparin • 2 mg heparin+50 mg glycine betaine • 2 mg heparin+10 mg glycine betaine • 2 mg heparin+2 mg glycine betaine
# [8] = tested on: arterial thrombosis induced by laser beam in the mesenteric microcirculation of the rat; experiment: Laser-induced thrombosis in the mesenteric microcirculation; assay type: in vivo; conditions: oral 50 mg/kg
# [9] = value taken for the deconvolution technique; cited from earlier work
structure (smiles),measurement,setting,value
C[N+](C)(C)CC(=O)O [Glycine betaine],Clot weight,[1]; 1 mg/kg s.c.,3.1 ± 0.4 mg
same,Clot weight,[1]; 2.5 mg/kg s.c.,1.63 ± 0.76 mg
same,Clot weight,[1]; 5 mg/kg s.c.,0.76 ± 0.4 mg
same,ACT,[2]; 1 mg/kg,29.1 ± 2.3 s
same,Anti Xa,[2]; 1 mg/kg,0.08 ± 0.1 units/ml
same,Fibrinogen,[2]; 1 mg/kg,2.63 ± 0.3 g/L
same,Plasminogenesis,[2]; 1 mg/kg,2.44 ± 0.58%
same,Quick time,[2]; 1 mg/kg,16.2 ± 1.2 s
same,ACT,[2]; 2.5 mg/kg,31.2 ± 2.6 s
same,Anti Xa,[2]; 2.5 mg/kg,0.14 ± 0.10 units/ml
same,Fibrinogen,[2]; 2.5 mg/kg,2.2 ± 0.17 g/L
same,Plasminogenesis,[2]; 2.5 mg/kg,2 ± 0.15%
same,Quick time,[2]; 2.5 mg/kg,16.6 ± 0.7 s
same,ACT,[2]; 5 mg/kg,33.5 ± 1.9 s
same,Anti Xa,[2]; 5 mg/kg,0.35 ± 0.15 units/ml
same,Fibrinogen,[2]; 5 mg/kg,2.32 ± 0.33 g/L
same,Plasminogenesis,[2]; 5 mg/kg,1.66 ± 0.58%
same,Quick time,[2]; 5 mg/kg,15.6 ± 0.4 s
same,Activated coagulation time,[3]; 10 mg/kg subcutaneous,128 s
same,Activated coagulation time,"[3]; 10 mg/kg subcutaneous, after 24 hours",71 ± 3.51 s
same,Activated coagulation time,"[3]; 20 mg/kg subcutaneous, after 24 hours",154.66 ± 11.01 s
same,Activated coagulation time,[3]; 30 mg/kg subcutaneous,179 s
same,Activated coagulation time,[3]; 50 mg/kg subcutaneous,215 s
same,Activated coagulation time relative to control,[3]; 50 mg/kg subcutaneous,four times higher
same,Activated coagulation time,"[3]; oral 50 mg/kg, 1 hour",96 ± 11.27 s
same,Activated coagulation time,"[3]; oral 50 mg/kg, 6 hours",124.66 ± 9.29 s
same,Activated coagulation time,"[3]; oral 50 mg/kg, 24 hours",64.66 ± 7.37 s
same,Activated coagulation time,"[3]; oral 50 mg/kg, 48 hours",55.66 ± 7.02 s
same,Amplitude,[4]; 2.5 mg/kg,13 +/− 0.82 ohms
same,Velocity,[4]; 2.5 mg/kg,5.75 +/− 0.96 ohm/minute
same,Amplitude,[4]; 5 mg/kg,7.25 +/− 0.96 ohms
same,Velocity,[4]; 5 mg/kg,4.75 +/− 0.5 ohm/minute
same,Amplitude,[4]; 10 mg/kg,0 +/− 0 ohms
same,Velocity,[4]; 10 mg/kg,0 +/− 0 ohm/minute
same,Amplitude,[5]; 2.5 mg/kg,13.75 +/− 0.96 ohms
same,Velocity,[5]; 2.5 mg/kg,9.25 +/− 2.63 ohm/minute
same,Amplitude,[5]; 5 mg/kg,5.5 +/− 1.29 ohms
same,Velocity,[5]; 5 mg/kg,4.5 +/− 1 ohm/minute
same,Amplitude,[5]; 10 mg/kg,1.5 +/− 1.29 ohms
same,Velocity,[5]; 10 mg/kg,2 +/− 0.82 ohm/minute
same,Reduction of induced platelet aggregations (all agonists),[6],at least 30%
same,Bleeding time after induced haemorrhage,[7],bleeding time was reduced
same,Number of emboles,[8]; 1 hour,0 +/− 0
same,Embolisation time,[8]; 48 hours,2 ± 0 min
same,Number of laser firing,[8]; 48 hours,2.33 +/− 0.57
same,Elimination half life,[9],7.8 h
